Results from ChEMBL document CHEMBL1125551, “Conformationally restricted analogues of disoxaril: a comparison of the activity against human rhinovirus types 14 and 1A” (1992).
Converted amounts (≈) assume the structure as drawn.

Key:
Human rhinovirus 1A = experiment: In vitro determined against HRV-1A in a plaque reduction assay; assay type: functional
rhinovirus B14 = experiment: In vitro determined against HRV-14 in a plaque reduction assay; assay type: functional, human rhinovirus type 14; conditions: Rhinovirus B

| SMILES | MIC (Human rhinovirus 1A) | MIC (rhinovirus B14) |
| --- | --- | --- |
| Cc1cc(CCC#CCOc2c(Cl)cc(C3=NCCO3)cc2Cl)on1 | > 8.2 µM | 0.26 µM (≈ 0.0986 µg/mL) |
| Cc1cc(CC/C=C\COc2c(Cl)cc(C3=NCCO3)cc2Cl)on1 | 4.72 µM (≈ 1.8 µg/mL) | 3.9 µM (≈ 1.49 µg/mL) |

These reach a lower MIC (Human rhinovirus 1A). Values come first.

| MIC (Human rhinovirus 1A) | MIC (rhinovirus B14) | SMILES |
| --- | --- | --- |
| 0.46 µM (≈ 0.163 µg/mL) | 8.14 µM (≈ 2.89 µg/mL) | Cc1cc(CCCOc2c(Cl)cc(C3=NCCO3)cc2Cl)on1 |
| 2.25 µM (≈ 0.858 µg/mL) | 0.44 µM (≈ 0.168 µg/mL) | Cc1cc(CC/C=C/COc2c(Cl)cc(C3=NCCO3)cc2Cl)on1 |
| 2.5 µM (≈ 0.958 µg/mL) | 1.2 µM (≈ 0.46 µg/mL) | Cc1cc(CCCCCOc2c(Cl)cc(C3=NCCO3)cc2Cl)on1 [WIN-54954] |
